# Measured values published in patent US20220370545A1, “INTEGRIN RECEPTOR ALPHA V BETA 3 AND ITS LIGAND INVOLVED IN CHRONIC ITCH” (North Carolina State University, priority 2019, published 2022).
# What was measured:
# [1] = test system: MC903-induced spontaneous chronic itch in mice; assay: MC903-induced mouse model of atopic dermatitis, spontaneous scratching; format: in vivo; conditions: cilengitide 100 nM by tail vein injection, Day 10
# Experimental: C57BL6 mice (Jackson Labs, Ellsworth, Maine, United States of America) were applied daily with MC903 (4 nmol) and vehicle (97% ethanol) after brief anesthesia. Skin thickness was measured using cutimeter as described (Fukuyama et al., 2015). Scratching behavior was video-monitored for 30 min on Day 1 and Day 7. On Day 7 skin was collected from vehicle and MC903 treated mice for the Western Blot (WB) as described below. NC/Nga mice (Charles River, Yokohama, Japan) were sensitized and challenged with house dust mite (HDM) allergen (Dermatophagoides farina, Greer, Lenoir, N.C., United States of Amercia) as described previously (Fukuyama et al., 2018). […] Scratching behavior was video monitored for 60 min period immediately after HDM on day 42. […] The amount of periostin was determined using ELISA according to the manufacturer's instruction.
# A mouse model of atopic dermatitis in mice is generated. […] At Day 10, vehicle or the compound (at least one dose) is administered intravenous/orally to the animals, and then measured the scratching behaviors for at least 60 min. In order to see the sub-chronic effect of the compound, vehicle and the compound is administered to MC903-treated animals for several days and the alteration of the scratching behaviors is measured.
# [2] = target: T1, TRPV1 receptor (Mus musculus, UniProt Q704Y3); assay: Capsaicin-induced calcium response in DRG neurons (specificity control); format: cell-based; conditions: perfusion with 100 nM cilengitide
# T1 construct: endogenous in cells; host or cells: primary mouse dorsal root ganglion neurons
# T1 sequence (Q704Y3 whole entry, the tested form may be a part): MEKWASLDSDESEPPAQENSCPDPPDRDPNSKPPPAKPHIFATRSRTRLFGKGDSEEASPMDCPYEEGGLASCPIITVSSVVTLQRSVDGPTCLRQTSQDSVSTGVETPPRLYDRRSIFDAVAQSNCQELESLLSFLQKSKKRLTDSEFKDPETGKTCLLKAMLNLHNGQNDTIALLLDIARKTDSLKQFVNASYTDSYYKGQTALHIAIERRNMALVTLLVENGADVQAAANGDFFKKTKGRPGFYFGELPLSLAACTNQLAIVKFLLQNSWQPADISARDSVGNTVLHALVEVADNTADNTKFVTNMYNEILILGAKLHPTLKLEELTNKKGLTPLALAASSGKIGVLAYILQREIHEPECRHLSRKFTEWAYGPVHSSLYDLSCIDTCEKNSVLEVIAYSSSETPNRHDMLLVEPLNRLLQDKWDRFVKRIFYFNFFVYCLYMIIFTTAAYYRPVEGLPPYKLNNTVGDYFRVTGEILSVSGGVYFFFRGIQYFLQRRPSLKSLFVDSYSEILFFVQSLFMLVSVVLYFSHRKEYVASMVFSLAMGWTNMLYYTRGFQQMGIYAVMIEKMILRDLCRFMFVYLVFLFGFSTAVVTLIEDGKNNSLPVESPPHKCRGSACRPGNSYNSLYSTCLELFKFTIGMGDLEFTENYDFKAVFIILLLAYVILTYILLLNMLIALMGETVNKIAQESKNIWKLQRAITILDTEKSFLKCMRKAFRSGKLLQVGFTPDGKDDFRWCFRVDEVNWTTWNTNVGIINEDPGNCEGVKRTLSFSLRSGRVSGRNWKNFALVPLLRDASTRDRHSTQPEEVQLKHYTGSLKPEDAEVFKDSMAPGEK
# Experimental: Before imaging, cells were incubated in 350 μL of complete media containing 1 μM Fura-2 AM (Enzo Life Sciences, Farmingdale, New York, United States of America) for 30 min at 37° C. with 5% CO2. During imaging, the cells were perfused with a buffer containing the following: 135 mM sodium chloride, 3.2 mM potassium chloride, 2.5 mM magnesium chloride, 2.8 mM calcium chloride, 667 μM monobasic sodium phosphate, 14.2 mM sodium bicarbonate, and 10.9 mM D-glucose (all from VWR International, Radnor, Pennsylvania, United States of America) with a pH between 7.00 and 7.40. The buffer and the holding plate were kept at 37° C. while imaging. Imaging data was collected on a TE200 inverted microscope using NIS Elements software (Nikon, Melville, New York, United States of America). Cells were exposed to 340 nm and 380 nm wavelengths for 100 ms and the A340/A380 ratio was calculated. Traces were analyzed using Excel and responses greater than 10% of the baseline were counted. Each data point in the scatter plots represented one coverslip.
# Calcium Imaging: Calcium imaging will be performed on the DRG neurons as previously described (Pitake et al., 2018). Briefly, DRG neurons will be incubated for longer than 30 min in DMEM containing 1 μM of a fluorescent indicator Fura-2 AM (Enzo Life Sciences, Inc., Farmingdale, N.Y., United States of America). The neurons will be perfused in a standard bath solution containing 140 mM NaCl, 5 mM KCl, 2 mM MgCl2, 2 mM CaCl2, 10 mM Hepes and 10 mM D-glucose at pH 7.4 adjusted with NaOH. A calcium-free bath solution will be prepared by omitting 2 mM CaCl2 from the standard bath solution […] adding 5 mM EGTA. Fura-2 fluorescence excited at 340 and 380 nm and emission will be monitored at 510 nm with a digital CCD camera (Andor Clara DR-4152, Andor Technology Ltd, Belfast, United Kingdom). Data will be obtained by every 100 ms using an imaging software (NIS-Elements AR 4.13.04, Nikon Corporation, Tokyo, Japan) and analyzed by Microsoft Excel (Microsoft Corporation, Redmond, Wash., United States of America). Values of calcium responses will be normalized by dividing measured values (F) with average values of initial 5 frames (F0) of each cell and described as F/F0. In this study, changes in each response to an application with F/F0>0.1 will be regarded as positive. Cells not responding to 100 mM KCl, which is applied at the end of each experiment, will be regarded as non-neuronal cells and excluded from analysis.
# Additional inhibitors were studied using the calcium imaging method described in Example 3. Briefly, the Fura2-AM calcium imaging method was performed on live dorsal root ganglia (DRG) neurons (ex vivo). The DRG neurons are pre-incubated with the inhibitors P11 (Catalog #4744, Tocris Bioscience, Bristol, United Kingdom) and LM609 (Catalog #MAB1876, Millipore Sigma, Burlington, Mass., United States of America) or vehicle for 10 minutes and further stimulated with periostin or capsaicin in the presence of inhibitors. For Echistatin (Catalog #3202/100U, R&D Biosystems, Minneapolis, Minn., United States of America), MK-0429, and SB273005 (Catalog #S75-40, Selleck Chemicals Llc, Houston, Tex., United States of America), the DRG neurons were perfused with a normal Locke buffer vehicle or modified Locke buffer as described below. The values were normalized with KCl ([…]) to identify neuronal responses in all the calcium response data below.
smiles,measurement,setting,value
"CC(C)[C@H]1C(=O)N[C@@H](CCCN=C(N)N)C(=O)NCC(=O)N[C@@H](CC(=O)O)C(=O)N[C@H](Cc2ccccc2)C(=O)N1C [cilengitide, cyclo RGDf-n(Me)V]",MC903-induced spontaneous itching,[1],significantly reduced
same,capsaicin-induced calcium response,[2],did not reduce
